Data from publication PMC9405123, “Design, Synthesis and Mechanistic Studies of Novel Isatin-Pyrazole Hydrazone Conjugates as Selective and Potent Bacterial MetAP Inhibitors” (Antibiotics, 2022).
Values after ≈ are worked out from the molar mass of the structure shown. Read-outs that look alike come from different tables or passages of the source.

Tests used:
[1] = system: S. aureus; test: Growth inhibition screening (broth dilution); format: cell-based, Staphylococcus aureus; conditions: Staphylococcus aureus
Method: (§1) In vitro screening of the compounds (PS1–14) was performed to assess the antibacterial activity against three Gram-positive (Staphylococcus aureus, Enterococcus faecalis and Bacillus subtilis,) and three Gram-negative (Pseudomonas aeruginosa, Klebsiella pneumonia and Escherichia coli) bacterial strains using the standard NCCLS broth dilution assay. The study’s standard drugs were ciprofloxacin (CIP) and ampicillin (AMP). Compounds were dissolved in a polar solvent (DMSO) and distributed into a 96-well plate in 200 µL of nutrient broth medium, with a final concentration of the compounds […] in each well. The bacterial cells (about 2.5 × 10^5 cells/mL) were inoculated into each well and incubated at 37 °C overnight. After incubation, the growth was measured by turbidity of the culture at 590 nm by spectrophotometer.

[2] = target: SpMetAP1a (Streptococcus pneumoniae, UniProt Q8DPV1); test: MetAP enzyme inhibition, Morrison Ki (Met-AMC fluorescence); format: biochemical; conditions: Morrison Ki method
SpMetAP1a, sequence (Q8DPV1 entry or part of it): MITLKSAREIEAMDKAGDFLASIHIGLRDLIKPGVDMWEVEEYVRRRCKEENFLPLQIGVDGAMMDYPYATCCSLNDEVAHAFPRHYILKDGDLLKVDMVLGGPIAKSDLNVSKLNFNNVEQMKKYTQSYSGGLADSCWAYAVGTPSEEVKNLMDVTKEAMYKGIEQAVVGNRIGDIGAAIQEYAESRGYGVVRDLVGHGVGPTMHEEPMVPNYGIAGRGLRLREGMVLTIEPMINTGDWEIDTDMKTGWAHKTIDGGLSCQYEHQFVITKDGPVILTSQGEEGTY

[3] = system: B. subtilis; test: Minimum inhibitory concentration (broth dilution); format: cell-based; conditions: Bacillus subtilis, alone
[4] = system: E. faecalis; test: Growth inhibition screening (broth dilution); format: cell-based, Enterococcus faecalis; conditions: Enterococcus faecalis
Method: as §1

[5] = system: E. faecalis; test: Minimum bactericidal concentration; format: cell-based, Enterococcus faecalis
[6] = system: E. faecalis; test: Minimum inhibitory concentration (broth dilution); format: cell-based; conditions: Enterococcus faecalis, alone
[7] = target: EfMetAP1a (Enterococcus faecalis, UniProt Q832M5); test: MetAP enzyme inhibition, Morrison Ki (Met-AMC fluorescence); format: biochemical; conditions: Morrison Ki method
EfMetAP1a, sequence (Q832M5 entry or part of it): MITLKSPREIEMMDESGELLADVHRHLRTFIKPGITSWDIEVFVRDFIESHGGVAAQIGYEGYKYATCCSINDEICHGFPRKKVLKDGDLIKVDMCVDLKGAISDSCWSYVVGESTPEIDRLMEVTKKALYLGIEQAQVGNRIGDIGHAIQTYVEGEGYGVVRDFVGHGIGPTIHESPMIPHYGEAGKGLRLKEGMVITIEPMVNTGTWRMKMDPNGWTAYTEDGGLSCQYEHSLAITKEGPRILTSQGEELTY

[8] = system: K. pneumoniae; test: Minimum bactericidal concentration; format: cell-based, Klebsiella pneumonia
[9] = target: T1, HsMetAP1b (Homo sapiens, UniProt P53582); test: MetAP enzyme inhibition, Morrison Ki (Met-AMC fluorescence); format: biochemical, H. sapiens; conditions: Morrison Ki method
T1 construct: made in house

[10] = system: E. coli; test: Growth inhibition screening (broth dilution); format: cell-based, Escherichia coli; conditions: Escherichia coli
Method: as §1

[11] = system: E. coli; test: Minimum bactericidal concentration; format: cell-based, Escherichia coli
[12] = system: B. subtilis; test: Minimum bactericidal concentration; format: cell-based, Bacillus subtilis
[13] = system: S. aureus; test: Minimum bactericidal concentration; format: cell-based, Staphylococcus aureus
[14] = system: P. aeruginosa; test: Growth inhibition screening (broth dilution); format: cell-based, Pseudomonas aeruginosa; conditions: Pseudomonas aeruginosa
Method: as §1

[15] = system: K. pneumoniae; test: Growth inhibition screening (broth dilution); format: cell-based, Klebsiella pneumonia; conditions: Klebsiella pneumoniae
Method: as §1

[16] = system: K. pneumoniae; test: Minimum inhibitory concentration (broth dilution); format: cell-based, Klebsiella pneumonia; conditions: alone
[17] = system: E. coli; test: Minimum inhibitory concentration (broth dilution); format: cell-based, Escherichia coli; conditions: Escherichia coli, alone, read-out: MIC
[18] = target: T2, MtMetAP1c (Mycobacterium tuberculosis, UniProt P9WK19); test: MetAP enzyme inhibition, Morrison Ki (Met-AMC fluorescence); format: biochemical, M. tuberculosis; conditions: Morrison Ki method
T2 construct: made in house
T2 sequence (P9WK19 whole entry): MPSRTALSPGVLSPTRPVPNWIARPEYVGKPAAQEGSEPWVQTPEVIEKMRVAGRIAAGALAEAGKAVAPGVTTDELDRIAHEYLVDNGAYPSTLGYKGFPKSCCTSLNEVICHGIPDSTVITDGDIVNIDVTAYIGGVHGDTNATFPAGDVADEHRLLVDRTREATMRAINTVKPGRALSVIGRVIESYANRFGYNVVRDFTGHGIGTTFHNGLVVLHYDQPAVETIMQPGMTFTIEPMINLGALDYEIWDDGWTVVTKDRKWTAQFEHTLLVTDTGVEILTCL
Method: MetAP appears to serve a vital role in the co- or post-translational modification of proteins, making it essential for bacterial cell metabolism and survival. In this study, all enzymes, which were used for this study, including MtMetAP1c (M. tuberculosis), EfMetAP1a (E. faecalis), SpMetAP1a (S. pneumoniae) and HsMetAP1b (H. sapiens) enzymes, were expressed and purified in our lab as previously reported. All compounds prepared 10 mM stocks in DMSO and were used for enzyme inhibition studies. The concentration of each enzyme is adjusted such that they have similar reaction rates (HsMetAp1b, 1 µM; SpMetAP1a, 5 µM; EfMetAP1a, 1 µM; MtMetAP1c, 1 µM;) as reported earlier. All assays were performed in […] reaction containing 50 mM HEPES (pH 7.5 for SpMetAP1a and HsMetAP1b; 8.0 for EfMetAP1a, MtMetAP1c, […]), 150 mM NaCl, and CoCl2 (three molar equivalents of corresponding enzymes). The reaction was started by adding 50 μM L-Methionine 7-amido-4-methyl coumarin (Met-AMC) and continuously monitoring the fluorescence of released 7-amino-4-methyl coumarin (AMC) (380 nm excitation and 460 nm emission) in a microplate multimode reader (TECAN, Austria). The maximum percentage of inhibition against enzymes is calculated at […] compound concentration. […] The Ki values were determined according to the Morrison method using three different concentrations of substrates and ten different concentrations of the inhibitor. All experiments were performed in triplicate. GraphPad Prism version 8.0.0 (San Diego, CA, USA) was used to determine all the kinetic parameters.

[19] = system: B. subtilis; test: Growth inhibition screening (broth dilution); format: cell-based, Bacillus subtilis; conditions: Bacillus subtilis
Method: as §1

[20] = system: P. aeruginosa; test: Minimum bactericidal concentration; format: cell-based, Pseudomonas aeruginosa
[21] = system: P. aeruginosa; test: Minimum inhibitory concentration (broth dilution); format: cell-based; conditions: Pseudomonas aeruginosa, alone
[22] = system: S. aureus; test: Minimum inhibitory concentration (broth dilution); format: cell-based; conditions: Staphylococcus aureus, alone

Question: For O=C1Nc2cc(Cl)ccc2/C1=N\NC(=O)c1cc(-c2cccc(Br)c2)n[nH]1 [PS3, (E)-3-(3-Bromophenyl)-N′-(6-Chloro-2-Oxoindolin-3-Ylidene)-1H-Pyrazole-5-Carbohydrazide], which inhibition at 250 µg/mL [1] is on record?
Answer: 64%

Question: What about the Ki [2] of the same compound?
Answer: 1.79 ± 0.08 µM

Question: And the MIC [3]?
Answer: 64 µg/mL (≈ 144 µM)

Question: And the inhibition at 250 µg/mL [4]?
Answer: 60%

Question: What about the “MBC/MIC Ratio (R*)” value [5] of the same compound?
Answer: 2

Question: What about the MBC ([5]; Enterococcus faecalis) of the same compound?
Answer: 256 µg/mL (≈ 576 µM)

Question: What about the MIC [6] of the same compound?
Answer: 128 µg/mL (≈ 288 µM)

Question: What about the Ki [7] of the same compound?
Answer: 4.63 ± 0.87 µM

Question: What about the “MBC/MIC Ratio (R*)” value [8] of the same compound?
Answer: 8

Question: What about the MBC ([8]; Klebsiella pneumoniae) of the same compound?
Answer: 512 µg/mL (≈ 1150 µM)

Question: And the Ki [9]?
Answer: 332 ± 10.9 µM

Question: And the inhibition at 250 µg/mL [10]?
Answer: 89%

Question: And the “MBC/MIC Ratio (R*)” value [11]?
Answer: 2

Question: What about the MBC ([11]; Escherichia coli) of the same compound?
Answer: 256 µg/mL (≈ 576 µM)

Question: What about the “MBC/MIC Ratio (R*)” value [12] of the same compound?
Answer: 2

Question: And the MBC ([12]; Bacillus subtilis)?
Answer: 128 µg/mL (≈ 288 µM)

Question: What about the “MBC/MIC Ratio (R*)” value [13] of the same compound?
Answer: 1

Question: And the MBC ([13]; Staphylococcus aureus)?
Answer: 128 µg/mL (≈ 288 µM)

Question: What about the inhibition at 250 µg/mL [14] of the same compound?
Answer: 90%

Question: And the inhibition at 250 µg/mL [15]?
Answer: 97%

Question: And the MIC ([16]; Klebsiella pneumoniae, read-out: MIC)?
Answer: 32 µg/mL (≈ 72 µM)

Question: And the MIC [16]?
Answer: 64 µg/mL (≈ 144 µM)

Question: And the MIC [17]?
Answer: 128 µg/mL (≈ 288 µM)

Question: And the Ki [18]?
Answer: 2.32 ± 0.28 µM

Question: And the inhibition at 250 µg/mL [19]?
Answer: 89%

Question: What about the “MBC/MIC Ratio (R*)” value [20] of the same compound?
Answer: 8

Question: What about the MBC ([20]; Pseudomonas aeruginosa) of the same compound?
Answer: 256 µg/mL (≈ 576 µM)

Question: And the MIC [21]?
Answer: 32 µg/mL (≈ 72 µM)

Question: What about the melting point of the same compound?
Answer: 182 to 185 °C

Question: And the MIC [22]?
Answer: 128 µg/mL (≈ 288 µM)
